What all share (format): cell-based
One series concerns HIV-1/100-Ile. Kind of series: Inhibition of HIV-1 induced syncytium formation in CEM cells, RT mutant 100-Ile. The note with it: Human immunodeficiency virus 1, CCRF-CEM, 96 h, Table 2B, day 4, averages of 2 to 3 independent experiments, read-out: Antiviral Activity of Comparative Compounds EC50, 100-Ile. The text has this:
(§1) CEM cells were obtained from the American Tissue Cell Culture Collection (Rockville, Md.). HIV-1(IIIB) was originally obtained from the culture supernatant of persistently HIV-1-infected H9 cells and was provided by R. C. Gallo and M. Popovic (National Cancer Institute, National Institutes of Health, Bethesda, Md.). […] 67: 5353-5359 (1993); HIV-1/Lys-138 ("Lys-138") was selected for resistance against TSAO-m^3T as described in Balzarini et al, Virology 192: 246-253 (1993) and Balzarini et al, Proc. Nat. Acad. Sci. USA 90: 6952-6956 (1993); HIV-1/181-Cys ("181-Cys") was selected for resistance against pyridinone L-697,661 as described in Balzarini et al, Virology 192: 246-253 (1993); and HIV-1/188-His ("188-His") was selected for resistance against HEPT as described in Balzarini et al, Mol. Pharmocol. 44: 694-701 (1993). 188-His was then further converted to HIV-1/188-Leu "188-Leu") upon further passage in cell culture in the absence of the HEPT.
(§2) CEM cells were suspended at ≈300,000 cells per ml of culture medium and infected with approximately 100 CCID50 (CCID50 being the 50% cell culture infective dose) of HIV-1(IIIB) or one of the HIV-1 RT mutant strains described above. Then 100 μl of the infected cell suspensions was added to 200 μl microtiter plate wells containing 100 μl of appropriate serial (5-fold) dilutions of the test compounds. The inhibitory effect of the test compounds on HIV-1 induced syncytium formation in CEM cells was examined microscopically on day 4 post infection.

The next series relates to HIV-1/181-Cys. Kind of series: Inhibition of HIV-1 induced syncytium formation in CEM cells, RT mutant 181-Cys. The note with it: Human immunodeficiency virus 1, CCRF-CEM, 96 h, Table 2B, day 4, averages of 2 to 3 independent experiments, read-out: Antiviral Activity of Comparative Compounds EC50, 181-Cys.
Text: as §1, §2

The nature of the next series: in vitro. The note with it: human, cem cells, CC50 (50% cytostatic concentration), Table 2B; CEM cell proliferation; averages of 2 to 3 independent experiments.
Text: as §1
^b 50% cytostatic concentration (i.e., compound concentration require
to inhibit CEM cell proliferation by 50%)

The subject of a further series is HIV-1/Lys-138. Kind of series: Inhibition of HIV-1 induced syncytium formation in CEM cells, RT mutant 138-Lys. Conditions: Human immunodeficiency virus 1, CCRF-CEM, 96 h, Table 2B, day 4, averages of 2 to 3 independent experiments, read-out: Antiviral Activity of Comparative Compounds EC50, 138-Lys.
Text: as §1, §2

The next series relates to HIV-1(IIIB). Kind of series: Inhibition of HIV-1 induced syncytium formation in CEM cells, wild type. Conditions: Human immunodeficiency virus 1, IIIB, CCRF-CEM, 96 h, Table 2B, WT = HIV-1(IIIB), day 4, averages of 2 to 3 independent experiments, read-out: Antiviral Activity of Comparative Compounds EC50, WT.
Text: as §1, §2

Another series relates to HIV-1/106-Ala. Kind of series: Inhibition of HIV-1 induced syncytium formation in CEM cells, RT mutant 106-Ala. Conditions: Human immunodeficiency virus 1, CCRF-CEM, 96 h, Table 2B, day 4, averages of 2 to 3 independent experiments, read-out: Antiviral Activity of Comparative Compounds EC50, 106-Ala.
Text: as §1, §2

≈ marks a conversion by molar mass, not a printed value.

Regarding `C=CCOc1cc(NC(=S)c2sccc2C)ccc1Cl` [Compound 76], the EC50 in the series on HIV-1/100-Ile is 2.7 µg/mL (≈ 8.34 µM); with HIV-1/181-Cys, > 1 µg/mL; with HIV-1/Lys-138, 0.73 µg/mL (≈ 2.25 µM); with HIV-1(IIIB), 0.035 µg/mL (≈ 0.108 µM); in the series with HIV-1/106-Ala it was ≥ 1 µg/mL. Moreover, it took 5.3 µg/mL (≈ 16.4 µM) to reach half-maximal cytotoxicity in “in vitro” (CC50).
Consider `CC(C)OC(=O)c1cc(NC(=S)c2ccco2)ccc1Cl` [Compound 86], for which the EC50 in the series on HIV-1/100-Ile came to 5 µg/mL (≈ 15.4 µM); with HIV-1/181-Cys, 5 µg/mL (≈ 15.4 µM); in the series on HIV-1/Lys-138, 4 µg/mL (≈ 12.4 µM); with HIV-1(IIIB) it was 0.1 µg/mL (≈ 0.309 µM); in the series with HIV-1/106-Ala, 5 µg/mL (≈ 15.4 µM). In the series “in vitro”, this molecule returned a CC50 of 7.4 µg/mL (≈ 22.9 µM).
On to `Cc1ccccc1C(=O)Nc1ccc(Cl)c(C(=O)OC2CCCCC2)c1` [Compound 70], for which the EC50 amounted to 2.5 µg/mL (≈ 6.72 µM) with HIV-1/100-Ile; 2.5 µg/mL (≈ 6.72 µM) in the series with HIV-1/181-Cys; 5.5 µg/mL (≈ 14.8 µM) in the series with HIV-1/Lys-138; 0.19 µg/mL (≈ 0.511 µM) with HIV-1(IIIB); 6.5 µg/mL (≈ 17.5 µM) in the series on HIV-1/106-Ala. Moreover, in “in vitro”, the midpoint of cytotoxicity, the CC50, lay at 5.2 µg/mL (≈ 14 µM).
In the case of `Cc1ccsc1C(=S)Nc1ccc(Cl)c(C(=O)OC(C(C)C)C(C)C)c1` [Compound 101], the EC50 in the series with HIV-1/100-Ile was determined as 3 µg/mL (≈ 7.32 µM); with HIV-1/181-Cys it was 0.55 µg/mL (≈ 1.34 µM); in the series with HIV-1/Lys-138, 0.33 µg/mL (≈ 0.805 µM); in the series on HIV-1(IIIB), 0.045 µg/mL (≈ 0.11 µM); in the series on HIV-1/106-Ala it was 0.2 µg/mL (≈ 0.488 µM). Moreover, the 50% cytotoxic concentration (CC50) in the series “in vitro” was ≥ 100 µg/mL.
As for `Cc1ccsc1C(=S)Nc1ccc(Cl)c(C(=O)OC(C)C)c1` [Compound 88], the EC50 came to 0.7 µg/mL (≈ 1.98 µM) in the series on HIV-1/100-Ile; 0.27 µg/mL (≈ 0.763 µM) in the series on HIV-1/181-Cys; 0.3 µg/mL (≈ 0.848 µM) in the series with HIV-1/Lys-138; 0.01 µg/mL (≈ 0.0283 µM) in the series with HIV-1(IIIB); 0.6 µg/mL (≈ 1.7 µM) with HIV-1/106-Ala. In the series “in vitro”, this molecule came in with a CC50 of 5.2 µg/mL (≈ 14.7 µM).
In the case of `COc1ccc(NC(=O)c2ccoc2C)cc1CC(=O)OC(C)C` [Compound 56], the EC50 in the series on HIV-1/100-Ile was > 10 µg/mL; with HIV-1/181-Cys, > 10 µg/mL; with HIV-1/Lys-138, ≥ 10 µg/mL; with HIV-1(IIIB), 0.7 µg/mL (≈ 2.11 µM); in the series on HIV-1/106-Ala, 6.5 µg/mL (≈ 19.6 µM). In addition, in the series “in vitro”, it took 52 µg/mL (≈ 157 µM) to reach half-maximal cytotoxicity (CC50).
Regarding `Cc1ccsc1C(=S)Nc1ccc(Cl)c(C=NOC(C)C)c1` [Compound 95], the EC50 was determined as 0.65 µg/mL (≈ 1.84 µM) in the series with HIV-1/100-Ile; 0.5 µg/mL (≈ 1.42 µM) in the series on HIV-1/181-Cys; 0.16 µg/mL (≈ 0.453 µM) with HIV-1/Lys-138; 0.008 µg/mL (≈ 0.0227 µM) in the series on HIV-1(IIIB); 0.08 µg/mL (≈ 0.227 µM) in the series with HIV-1/106-Ala. For the same molecule, the CC50 in “in vitro” is 13 µg/mL (≈ 36.8 µM).
As to `Cc1occc1C(=S)Nc1ccc(Cl)c(C=NOC(C)C)c1` [Compound 97], the EC50 was 3.5 µg/mL (≈ 10.4 µM) in the series with HIV-1/100-Ile; 3.3 µg/mL (≈ 9.8 µM) with HIV-1/181-Cys; 2 µg/mL (≈ 5.94 µM) with HIV-1/Lys-138; 0.009 µg/mL (≈ 0.0267 µM) with HIV-1(IIIB); ≥ 4 µg/mL in the series with HIV-1/106-Ala. Also, the midpoint of cytotoxicity in the series “in vitro”, the CC50, lay at 3.3 µg/mL (≈ 9.8 µM).
`Cc1sccc1C(=O)Nc1ccc(Cl)c(C=NOC(C)(C)C)c1` [Compound 60]: the EC50 in the series on HIV-1/100-Ile was 4.5 µg/mL (≈ 12.8 µM); in the series with HIV-1/181-Cys, 3 µg/mL (≈ 8.55 µM); in the series on HIV-1/Lys-138 it was 1.57 µg/mL (≈ 4.47 µM); in the series on HIV-1(IIIB) it was 0.23 µg/mL (≈ 0.656 µM); with HIV-1/106-Ala it was 1.6 µg/mL (≈ 4.56 µM). Besides, the CC50 in the series “in vitro” stood at 14 µg/mL (≈ 39.9 µM).
With `Cc1ccccc1C(=S)Nc1ccc(Cl)c(C(=O)OC(C)C)c1` [Compound 91], the 50% effective concentration (EC50) was determined as 4.5 µg/mL (≈ 12.9 µM) in the series on HIV-1/100-Ile; 7.5 µg/mL (≈ 21.6 µM) in the series on HIV-1/181-Cys; 5 µg/mL (≈ 14.4 µM) in the series with HIV-1/Lys-138; 0.45 µg/mL (≈ 1.29 µM) in the series with HIV-1(IIIB); 8.5 µg/mL (≈ 24.4 µM) in the series on HIV-1/106-Ala. Further, in the series “in vitro”, the CC50 was found to be 5.8 µg/mL (≈ 16.7 µM).
As for `C=CCON=Cc1cc(NC(=S)c2ccoc2C)ccc1Cl` [Compound 111], the EC50 came to 0.5 µg/mL (≈ 1.49 µM) in the series on HIV-1/100-Ile; 0.3 µg/mL (≈ 0.896 µM) with HIV-1/181-Cys; 0.077 µg/mL (≈ 0.23 µM) in the series on HIV-1/Lys-138; 0.007 µg/mL (≈ 0.0209 µM) with HIV-1(IIIB); 0.085 µg/mL (≈ 0.254 µM) with HIV-1/106-Ala. The CC50 in the series “in vitro” was 12 µg/mL (≈ 35.8 µM).
In the case of `CCC(CC)COC(=O)c1cc(NC(=S)c2ccoc2C)ccc1Cl` [Compound 108], the EC50 in the series on HIV-1/100-Ile worked out at 0.27 µg/mL (≈ 0.711 µM); in the series on HIV-1/181-Cys, 0.08 µg/mL (≈ 0.211 µM); in the series on HIV-1/Lys-138, 0.07 µg/mL (≈ 0.184 µM); in the series on HIV-1(IIIB) it was 0.007 µg/mL (≈ 0.0184 µM); in the series on HIV-1/106-Ala, 0.08 µg/mL (≈ 0.211 µM). For the same molecule, half-maximal cytotoxicity in the series “in vitro” (CC50) was put at 7 µg/mL (≈ 18.4 µM).

In general, EC50 refers to the concentration that produces a half-maximal response. Broadly, the CC50 is the concentration that lowers cell viability or growth by half.

Values taken from patent US5696151A, “Compounds useful for the inhibition of the replication of HIV-1 and HIV-1 mutants” (priority 1995, dated 1997).
